Experimental findings from patent publication US8951541B2, “Method of modifying dissolution rate of particles by addition of hydrophobic nanoparticles” (3M Innovative Properties Company, priority 2010, dated 2015) are described below.

The nature of the data set: Rate of dissolution of acetaminophen and acetaminophen/nanoparticle mixtures in DIW by UV/Vis absorbance at 243 nm. Type of data set: physicochemical. Particulars: 0.013 g in 1000 mL DIW. As for the experimental part:
The following procedure (similar to USP30-NF 25, Mar. 17, 2008) was used to measure the rate and intensity of dissolution of acetaminophen and acetaminophen/nanoparticle mixtures in Millipore H2O (i.e., DIW).
Three samples of acetaminophen were weighed out. One sample was used as a control sample (Comparative K). A pre-determined amount of surface modified nanoparticles were added to each of the other samples. Sample 14 was combined with 1 weight percent nanoparticles (0.013 g) and sample 15 was combined with 0.5 weight percent nanoparticles (0.0065 g). Each blended sample was prepared by adding the nanoparticles to the acetaminophen. […]
Each blended sample was then measured separately by adding to different glass beakers, each of which contained 1000 mL of DIW and a magnetic stir-bar. […] 0.013 g of the blended samples were measured out and added to the stirred DIW.
While the acetaminophen was being dissolved in the DIW, 1.5 mL samples of the DIW and acetaminophen mixtures were removed every two minutes by pipette. The UV/Vis spectra of the samples were immediately measured using a UV/Vis spectrophotometer (obtained from PerkinElmer, Waltham, Mass., under the trade designation “LAMBDA 35 UV/VIS SPECTROPHOTOMETER), specifically focusing on the 243 nm absorbance.
This was determined to be the final measured value needed for subsequent experiments. […]

Molecules are shown by their SMILES.

Consider `CC(=O)Nc1ccc(O)cc1` [Comparative K, acetaminophen], for which the “absorbance intensity at 243 nm (final measured value)” value (stirred, plateau value) is reported as “approximately 0.86”. The Slope (slope between first two time points: change in absorbance at 243 nm/change in time, in seconds) is reported as 0.0029.
